In EPA's ToxRefDB 2:

Columns and labels:
[1] = test system: rat; settings: Combined chronic toxicity/carcinogenicity, sprague dawley, Dermal, Topical, dose end: 101 week, group: systemic
[2] = test system: rat; settings: Multigenerational reproductive toxicity study, other, Oral, Feed, dose end: 2 generation
[3] = test system: dog; settings: Subchronic oral toxicity in nonrodent, beagle, Feed, dose end: 90 day, group: systemic, systemic / clinical chemistry / cortisol / cortisol + systemic / organ weight / liver / relative to body weight + systemic / pathology …
[4] = test system: mouse; settings: Subchronic oral toxicity in rodents, cd1, Feed, dose end: 90 day, group: systemic, systemic / clinical chemistry / hepatic mixed function oxidase (mfo) assay / hepatic mixed function oxidase (mfo) assay + systemic / in life…
[5] = test system: rat; settings: Combined chronic toxicity/carcinogenicity, other, Oral, Feed, dose end: 24 month, group: systemic
[6] = test system: rat; settings: Subchronic oral toxicity in rodents, sprague dawley, Feed, dose end: 90 day, group: systemic
[7] = test system: mouse; settings: Carcinogenicity; b6c3f1; Oral; Feed; dose end: 78 week; group: systemic; systemic / in life observation / body weight / body weight gain
[8] = test system: dog; settings: Chronic toxicity, beagle, Oral, Feed, dose end: 52 week, group: systemic
[9] = systemic / pathology microscopic / mammary gland / fibroadenoma + systemic / in life observation / body weight / body weight + systemic / in…
[10] = systemic / pathology microscopic / mammary gland / fibroadenoma + systemic / pathology microscopic / pituitary gland / acidophil adenoma + …
[11] = group: offspring, developmental / offspring survival late / viability index / viability index + systemic / in life observation / body weight / offspring (pup…
[12] = group: parental, systemic / pathology microscopic / liver / hypertrophy + systemic / pathology microscopic / liver / vacuolization
[13] = group: reproductive, reproductive / offspring survival early / dead fetuses / dead fetuses
[14] = systemic / pathology microscopic / liver / hypertrophy + systemic / pathology microscopic / liver / vacuolization + systemic / clinical …
[15] = systemic / pathology microscopic / thyroid gland / hypertrophy
[16] = systemic / pathology microscopic / thyroid gland / hypertrophy + systemic / clinical chemistry / alanine aminotransferase (alt/sgpt) / …
[17] = systemic / clinical chemistry / albumin / albumin + systemic / clinical chemistry / alkaline phosphatase (alp/alk) / alkaline phosphatase (…
[18] = systemic / hematology / hematocrit (hct) / hematocrit (hct) + systemic / hematology / hemoglobin (hgb) / hemoglobin (hgb)

CC/C(=C(\c1ccc(O)cc1)c1ccc(OCCN(C)C)cc1)c1ccccc1 [4-Hydroxytamoxifen]
LEL [1, 9]: 0.02 mg/kg/day
NEL [1, 9]: < 0.02 mg/kg/day
LOAEL [1, 10]: > 1 mg/kg/day
NOAEL [1, 10]: ≥ 1 mg/kg/day

OC(c1ccc(Cl)cc1)(c1ccc(Cl)cc1)C(Cl)(Cl)Cl [Dicofol]
LEL ([2]; group: offspring, developmental / offspring survival late / [other] / [other] + developmental / offspring survival late / viability index / viability index): 11.2 mg/kg/day
NEL ([2]; group: offspring, developmental / offspring survival late / [other] / [other] + developmental / offspring survival late / viability index / viability index + …): 2.2 mg/kg/day
LOAEL [2, 11]: > 23.2 mg/kg/day
NOAEL [2, 11]: ≥ 23.2 mg/kg/day
LEL [2, 12]: 1.9 mg/kg/day
LOAEL [2, 12]: 1.9 mg/kg/day
NEL [2, 12]: 0.4 mg/kg/day
NOAEL [2, 12]: 0.4 mg/kg/day
LEL [2, 13]: 23.2 mg/kg/day
LOAEL [2, 13]: > 23.2 mg/kg/day
NEL [2, 13]: 11.2 mg/kg/day
NOAEL [2, 13]: ≥ 23.2 mg/kg/day
LEL [3]: 3.3 mg/kg/day
LOAEL [3]: 3.3 mg/kg/day
NEL [3]: 0.29 mg/kg/day
NOAEL [3]: 0.29 mg/kg/day
LEL [4]: 18.2 mg/kg/day
LOAEL [4]: 18.2 mg/kg/day
NEL [4]: 1.6 mg/kg/day
NOAEL [4]: 1.6 mg/kg/day
LOAEL ([5]; systemic / pathology microscopic / liver / hypertrophy + systemic / pathology microscopic / liver / vacuolization): 2.23 mg/kg/day
LEL [5, 14]: 2.23 mg/kg/day
NEL [5, 14]: 0.22 mg/kg/day
NOAEL [5, 14]: 0.22 mg/kg/day
LEL [6, 15]: 0.64 mg/kg/day
LOAEL [6, 15]: 0.64 mg/kg/day
NEL [6, 16]: 0.07 mg/kg/day
NOAEL [6, 16]: 0.07 mg/kg/day
LEL [7]: 35 mg/kg/day
LOAEL [7]: 35 mg/kg/day
NEL [7]: 17 mg/kg/day
NOAEL [7]: 17 mg/kg/day
LOAEL [8, 17]: 5.42 mg/kg/day
NOAEL [8, 17]: 0.85 mg/kg/day
LEL [8, 18]: 0.12 mg/kg/day
NEL [8, 18]: < 0.12 mg/kg/day
